Laboratory results from PMC5727165, “A switch in nucleotide affinity governs activation of the Src and Tec family kinases” (Scientific Reports, 2017).

Target: T1, Src^32KΔC L255A (Mus musculus, UniProt P05480, L257A)
T1 construct: mouse Src^85-523 (Src^32KΔC); GST (cleaved yes); made in house; host or cells: baculovirus-infected Sf9 insect cells
Experiment: Differential scanning fluorimetry (thermal stability vs nucleotide concentration)
Type: binding
Conditions: Src^32KΔC L255A non-phosphorylated; DSF
Source text: Figure 3 An allosteric switch triggers nucleotide exchange. (a) Hydrophobic stack conservation in Src family kinases. The table illustrates the amino acid identity at each of the three positions in the hydrophobic stack in addition to the invariant tryptophan (Trp260 in Src) for all Src family kinase members. The positions are presented according to their N- to C-terminal order in the primary sequences. Where it was not possible to unambiguously determine the identity of the amino acid contributed by the SH2-kinase variable linker (V3), the residue is denoted by a question mark. (b) Small angle X-ray scattering of Itk^32K L351A (black). The scattering curve for wild type Itk^32K (cyan) is overlaid for comparison. […] (c) Rigid body modelling of Itk^32K L351A and fit to ab initio molecular envelope. Displacement of both the SH3 and SH2 domains is required for a good fit to the experimental scattering curve. (d) Determination of the binding constants of Itk^32K L351A for nucleotides by fluorescence anisotropy. […] (e) Determination of the thermal stabilities and relative binding affinities of non-phosphorylated Src^32KΔC L255A for nucleotides by differential scanning fluorimetry. […] TEXT PRINTED IN THE PICTURE: (d) Mant-ADP: Itk^32K L351A (non-phos) Kd (μM): 21.0 ± 2.1 | (d) Mant-ATP: Itk^32K L351A (non-phos) Kd (μM): 31.7 ± 2.7 | (e) ADP: Src^32KΔC L255A (non-phos) [nuc]1/2 (μM): 310 ± 20; Src^32KΔC L255A (non-phos) Tm^max (°C): 52.9; Src^32KΔC L255A (non-phos) ΔTm^max (°C): + 6.8 | (e) ATP: Src^32KΔC L255A (non-phos) [nuc]1/2 (μM): 100 ± 10; Src^32KΔC L255A (non-phos) Tm^max (°C): 54.2; Src^32KΔC L255A (non-phos) ΔTm^max (°C): + 8.1 | (e) apo: Src^32KΔC L255A (non-phos) Tm^max (°C): 46.1
Due to limiting protein concentrations, we were unable to obtain a binding curve by fluorescence anisotropy, so we instead used thermal stability measurements to investigate its nucleotide-binding properties. Determination of accurate binding constants from thermal stability measurements requires knowledge of the enthalpy of unfolding. However, for a given protein, the enthalpy of unfolding is independent of the ligand being tested, so comparison of the concentrations of nucleotide required for half maximal stabilisation is valid.
Thermal stabilities as a function of nucleotide concentration were measured by differential scanning fluorimetry (DSF). Samples contained 0.1 mg/ml protein in 50 mM Tris pH 7.5, 150 mM NaCl, 1 mM TCEP, and 5 mM MgCl2 with ADP, ATP, or AMPPNP concentrations ranging from 0–16 mM. Samples were measured in triplicate using a BioRad iQ™5 Multicolor Real-Time PCR Detection System. For detection of phosphorylated protein, samples were diluted and 1 ng and 15 ng were loaded to SDS-PAGE for Src and Itk proteins, respectively. Phosphorylation was measured by immunoblot.

SMILES: Nc1ncnc2c1ncn2[C@@H]1O[C@H](COP(=O)(O)OP(=O)(O)O)[C@@H](O)[C@H]1O [ADP]
- Tm^max: 52.9 °C
- [nuc]1/2 (nucleotide concentration for half maximal stabilisation): 310 ± 20 µM
